Measurements as given in patent US20240300940A1, “Phenothiazinyl Compounds and Uses” (Prosetta Biosciences, Inc., priority 2023, published 2024).

Key:
[1] = system: Hennes-20 cells; assay: Hennes-20 oncology screen; type: cell-based; details: 72 h, alamar Blue
Procedure: To screen compounds for oncology activity Hennes-20 cells were plated at low (500 cells/well) versus high (15,000 cells/well) densities and treated with DMSO (vehicle) or dose-titration of compounds. The rationale for this screen is that an intrinsically toxic compound should kill cells regardless of density, including in Hennes-20 cells. However, a compound that selectively triggers the arrest of proliferation will inhibit cell growth when plated at a low density will appear cytotoxic due to inhibition of cell growth when plated at a low density but will appear non-toxic to cells plated at a high density where the cells are approaching confluence and the readout detected by a cell viability assay is already close to the maximum.
To conduct the Hennes-20 screen, two 96 well plates were seeded with Hennes 20 cells in parallel where one was plated at a density of 500 cells/well and the other was plated at a density of 15,000 cells/well. 90 uL of minimum essential media was added to each well and plates were placed in a 37 degrees Celsius incubator for 24 hours. The next day, 10 ul of media containing dilutions of compound in DMSO were added to each plate. Six wells on each plate received 10 ul of media containing only DMSO. Each well was gently mixed 5 times with a 100 ul pipette. Plates were incubated at 37 degrees Celsius for 72 hours and then 10 uL of alamar Blue was added to each well. Wells were mixed 5 times then incubated at 37 degrees Celsius for […]. Plates were then read at 530/590.
The rationale for the screen is as follows: Hennes-20 cells lack endogenous apoptosis. Cells plated at low density will proliferate and approach confluence in 72 hrs. A drug that arrests proliferation may have its proliferation blocking effect masked by the triggering of endogenous apoptosis. However, in the Hennes line, lacking endogenous apoptosis, such an arrest is manifest as a dose-dependent maintenance at low cell density. Since the high-density cells are plated close to confluence, the difference between Alamar Blue cell survival readings after 72 hrs reflects the ability of the drug to block proliferation in the low density-plated cells. In the high density-plated cells any diminution of Alamar Blue readout vs vehicle control is due to intrinsic toxicity, not proliferation arrest, since cells were already at confluence. Thus, a compound that appears toxic (low Alamar Blue readings after 72 hrs) on the low-density plate, but which appears non-toxic (high Alamar Blue readings after 72 hrs) on the high-density plate, must be arresting proliferation, since intrinsic compound toxicity should be observed at both low and high cell densities, not selectively on the low-density plate.

[2] = system: VACV-LUC virus; assay: microbe, parasite or virus in culture; type: cell-based; details: Orthopoxvirus vaccinia, HeLa, 2 h
[3] = system: NL4-3 Rluc virus; assay: microbe, parasite or virus in culture; type: cell-based, HIV; details: MT-2 cells, MOI 0.02, 96 hours
[4] = system: E. coli ATCC25922; assay: MIC assay, serial dilution; details: for MIC: Escherichia coli, ATCC25922, read-out: Anti-bacterial Activity (E. coli MIC (uM)), E. coli, Table 5
[5] = system: RABV ERA strain; assay: organism not typed; type: cell-based
[6] = Human immunodeficiency virus 1, NL43, MT2, 96 h

CCc1cc(N2CCCC2)cc2[s+]c3cc(N(C)C)cc(C(C)C)c3nc12 [Compound 73]
EC50 [1]: 500 nM | EC50 [2]: 1670 nM | EC50 [3, 6]: 1.8 nM | MIC [4]: 100 µM | EC50 [5]: < 500 nM

CCc1cc(N2CCCC2)cc2[s+]c3cc(N4CCCC4)cc(C)c3nc12 [Compound 45]
EC50 [1]: < 2500 nM | EC50 [2]: < 1670 nM | EC50 [3, 6]: 3.1 nM | MIC [4]: 0.8 µM

CCc1cc(N(C)C)cc2[s+]c3cc(N4CCCC4)cc(CC)c3nc12 [Compound 36]
EC50 [1]: < 500 nM | EC50 [2]: < 1670 nM | EC50 [3, 6]: 7.6 nM | MIC [4]: 1.6 µM

Cc1cc(C(C)C)cc2[s+]c3cc(N(C)C)cc(C)c3nc12 [Compound 59]
EC50 [1]: < 500 nM | EC50 [2]: 560 nM

CCc1cc(N2CCCCCC2)cc2[s+]c3cc(N(C)C4CCNCC4)cc(CC)c3nc12 [Compound 77]
EC50 [1]: < 2500 nM | EC50 [2]: 1670 nM | MIC [4]: 3.1 µM

c1cc2nc3ccc(N4CCCC4)cc3[s+]c2cc1N1CCCC1 [Compound 68]
EC50 [1]: < 500 nM | EC50 [2]: < 560 nM | EC50 [3, 6]: 42 nM | MIC [4]: 6.3 µM

CN(C)c1ccc2nc3c(C(C)(C)C)cc(N(C)C)cc3[s+]c2c1 [Compound 66]
EC50 [1]: < 500 nM | EC50 [2]: 1670 nM

CCc1cc(N2CCNCC2)cc2[s+]c3cc(N4CCNCC4)cc(C)c3nc12 [Compound 92]
EC50 [1]: > 12500 nM | EC50 [3, 6]: 4300 nM

CCc1cc(N(C)C)cc2[s+]c3cc(N4CCCNCC4)cc(CC)c3nc12 [Compound 83]
EC50 [1]: < 12500 nM | EC50 [2]: 1670 nM | EC50 [3]: 270 nM | MIC [4]: 100 µM | EC50 [5]: < 500 nM

CCc1cc(NC(C)C)cc2[s+]c3cc(N4CCCN(C(=O)OC(C)(C)C)CC4)cc(CC)c3nc12 [Compound 69]
EC50 [1]: < 500 nM | EC50 [2]: < 5000 nM

CCc1cc(N2CCCC2)cc2[s+]c3cc(N4CCCC4)cc(C(C)C)c3nc12 [Compound 46]
EC50 [1]: < 500 nM | EC50 [3, 6]: 3 nM | Anti-bacterial Activity (E. coli MIC (uM)) ([4]; E. coli, Table 5): 3.1 µM | EC50 [5]: < 5 nM
